Source: the supplement of paper PMC10307832

Columns and labels:
Experiment in all cases: relative viability (nuclei count vs DMSO), 5 days (fraction); higher = more cells survive
Linifanib + Pictilisib = compound: Cc1ccc(F)c(NC(=O)Nc2ccc(-c3cccc4[nH]nc(N)c34)cc2)c1 [Linifanib] + CS(=O)(=O)N1CCN(Cc2cc3nc(-c4cccc5[nH]ncc45)nc(N4CCOCC4)c3s2)CC1 [Pictilisib] (partner 1 µM)
Method in brief: (§1)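 Five library-drug doses in √10 steps were combined with a fixed anchor-drug dose, or a single drug was given alone, by pin tool to lung cancer cell lines in 1536-well plates the day after seeding. Nuclei were stained and counted after 5 days. Relative viability is the nuclei count in treated wells over that in vehicle wells, taken as the median of duplicate plates.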

Linifanib + Vorinostat = compound: Cc1ccc(F)c(NC(=O)Nc2ccc(-c3cccc4[nH]nc(N)c34)cc2)c1 [Linifanib] + O=C(CCCCCCC(=O)Nc1ccccc1)NO [Vorinostat] (partner 1 µM)
Method in brief: as §1

Linifanib + Navitoclax = compound: Cc1ccc(F)c(NC(=O)Nc2ccc(-c3cccc4[nH]nc(N)c34)cc2)c1 [Linifanib] + CC1(C)CCC(c2ccc(Cl)cc2)=C(CN2CCN(c3ccc(C(=O)NS(=O)(=O)c4ccc(N[C@H](CCN5CCOCC5)CSc5ccccc5)c(S(=O)(=O)C(F)(F)F)c4)cc3)CC2)C1 [Navitoclax] (partner 0.5 µM)
Method in brief: as §1

Linifanib + Linsitinib = compound: Cc1ccc(F)c(NC(=O)Nc2ccc(-c3cccc4[nH]nc(N)c34)cc2)c1 [Linifanib] + C[C@]1(O)C[C@@H](c2nc(-c3ccc4ccc(-c5ccccc5)nc4c3)c3c(N)nccn32)C1 [Linsitinib] (partner 1 µM)
Method in brief: as §1

Linifanib + Alpelisib = compound: Cc1ccc(F)c(NC(=O)Nc2ccc(-c3cccc4[nH]nc(N)c34)cc2)c1 [Linifanib] + Cc1nc(NC(=O)N2CCC[C@H]2C(N)=O)sc1-c1ccnc(C(C)(C)C(F)(F)F)c1 [Alpelisib] (partner 2 µM)
Method in brief: as §1

Linifanib = compound: Cc1ccc(F)c(NC(=O)Nc2ccc(-c3cccc4[nH]nc(N)c34)cc2)c1 [Linifanib]
Method in brief: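 Viability was defined as treated-well nuclei divided by vehicle-well nuclei, with the median taken over replicate plates. Cells from lung cancer lines sat overnight at 37 °C in 1536-well plates, received five √10-spaced library-drug doses by pinning on vehicle-anchored plates, and grew 5 days without medium change before one-step fixation, permeabilisation and Hoechst staining, 4× imaging and MetaXpress nuclear counts. Only plates with control CV under 25% and at least one doubling were kept.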

Cell Line	relative viability (Linifanib + Pictilisib; first compound 0.03162 µM)	relative viability (Linifanib + Pictilisib; first compound 0.1 µM)	relative viability (Linifanib + Pictilisib; first compound 0.3162 µM)	relative viability (Linifanib + Vorinostat; first compound 0.03162 µM)	relative viability (Linifanib + Vorinostat; first compound 0.1 µM)	relative viability (Linifanib + Vorinostat; first compound 0.3162 µM)	relative viability (Linifanib + Navitoclax; first compound 0.03162 µM)	relative viability (Linifanib + Navitoclax; first compound 0.1 µM)	relative viability (Linifanib + Navitoclax; first compound 0.3162 µM)	relative viability (Linifanib + Linsitinib; first compound 0.03162 µM)	relative viability (Linifanib + Linsitinib; first compound 0.1 µM)	relative viability (Linifanib + Linsitinib; first compound 0.3162 µM)	relative viability (Linifanib + Alpelisib; first compound 0.03162 µM)	relative viability (Linifanib + Alpelisib; first compound 0.1 µM)	relative viability (Linifanib + Alpelisib; first compound 0.3162 µM)	relative viability (Linifanib; 0.03162 µM)	relative viability (Linifanib; 0.1 µM)	relative viability (Linifanib; 0.3162 µM)
HCC-78	0.24	0.21	0.237	0.419	0.427	0.455	0.791	0.74	0.792	0.528	0.526	0.497	0.339	0.357	0.363	0.99	1.17	0.885
HCC-366	0.148	0.21	0.214	0.371	0.378	0.359	1.12	1.11	0.874	0.676	0.735	0.5	0.533	0.664	0.357	1.06	1.05	0.949
HCC-827	0.898	0.96	0.933	0.792	0.814	0.802	1.02	1.02	1	0.992	0.999	0.996	0.986	1.06	0.922	1	1.06	1.02
HOP-62	0.709	0.693	0.88	0.803	0.643	0.604	1	1.07	0.859	1.08	0.896	0.876	1.38	1.03	1.07	1.06	1.03	0.974
LC-2-ad	0.379	0.57	0.437	0.83	0.7	0.73	0.48	0.553	0.429	0.691	0.851	0.766	0.749	0.912	0.752	0.996	0.996	0.88
LCLC-97TM1	0.208	0.196	0.169	0.739	0.807	0.603	0.436	0.417	0.321	0.17	0.214	0.171	0.284	0.292	0.246	1.15	1.02	0.919
LCLC-103H	0.71	0.596	0.693	0.848	0.764	0.734	–	–	–	1.13	1.07	0.978	0.838	0.927	0.894	1.02	1.03	0.981
